Measurements published in ChEMBL document CHEMBL4507264, “Data for DCP probe BAY-7598” (2021).

What was measured:
[1] = target: Casein kinase I isoform gamma-2 (Homo sapiens) (UniProt P78368); settings: Compound concentration 1000.0 nM
[2] = target: 5-hydroxytryptamine receptor 2B (Homo sapiens) (UniProt P41595); settings: Compound concentration 10.0 uM
[3] = target: Serine/threonine-protein kinase TBK1 (Homo sapiens) (UniProt Q9UHD2); settings: Compound concentration 1000.0 nM
[4] = target: Aurora kinase B (Homo sapiens) (UniProt Q96GD4); settings: Compound concentration 1000.0 nM
[5] = system: Tyrosine-protein kinase ABL1 (Homo sapiens), P00519 [F317L]; settings: Compound concentration 1000.0 nM
[6] = target: Tyrosine-protein kinase Lck (Homo sapiens) (UniProt P06239); settings: Compound concentration 1000.0 nM
[7] = target: Serine/threonine-protein kinase Sgk1 (Homo sapiens) (UniProt O00141); settings: Compound concentration 1000.0 nM
[8] = target: Myosin-IIIb (Homo sapiens) (UniProt Q8WXR4); settings: Compound concentration 1000.0 nM
[9] = system: Epidermal growth factor receptor (Homo sapiens), P00533 [L861Q]; settings: Compound concentration 1000.0 nM
[10] = target: Calcium/calmodulin-dependent protein kinase type 1G (Homo sapiens) (UniProt Q96NX5); settings: Compound concentration 1000.0 nM
[11] = target: Serine/threonine-protein kinase MRCK beta (Homo sapiens) (UniProt Q9Y5S2); settings: Compound concentration 1000.0 nM
[12] = target: Dual specificity mitogen-activated protein kinase kinase 1 (Homo sapiens) (UniProt Q02750); settings: Compound concentration 1000.0 nM
[13] = target: Alpha-2B adrenergic receptor (Homo sapiens) (UniProt P18089); settings: Compound concentration 10.0 uM
[14] = target: Epithelial discoidin domain-containing receptor 1 (Homo sapiens) (UniProt Q08345); settings: Compound concentration 1000.0 nM
[15] = target: Proto-oncogene tyrosine-protein kinase Src (Homo sapiens) (UniProt P12931); settings: Compound concentration 1000.0 nM
[16] = target: Cyclin-dependent kinase 16 (Homo sapiens) (UniProt Q00536); settings: Compound concentration 1000.0 nM
[17] = target: Ephrin type-A receptor 3 (Homo sapiens) (UniProt P29320); settings: Compound concentration 1000.0 nM
[18] = target: Myosin light chain kinase family member 4 (Homo sapiens) (UniProt Q86YV6); settings: Compound concentration 1000.0 nM
[19] = target: Mitogen-activated protein kinase 12 (Homo sapiens) (UniProt P53778); settings: Compound concentration 1000.0 nM
[20] = target: Serine/threonine-protein kinase TNNI3K (Homo sapiens) (UniProt Q59H18); settings: Compound concentration 1000.0 nM
[21] = system: Proto-oncogene tyrosine-protein kinase receptor Ret (Homo sapiens), P07949 [V804L]; settings: Compound concentration 1000.0 nM
[22] = target: Protein kinase C iota type (Homo sapiens) (UniProt P41743); settings: Compound concentration 1000.0 nM
[23] = target: Serine/threonine-protein kinase Nek10 (Homo sapiens) (UniProt Q6ZWH5); settings: Compound concentration 1000.0 nM
[24] = target: Serine/threonine-protein kinase MRCK gamma (Homo sapiens) (UniProt Q6DT37); settings: Compound concentration 1000.0 nM
[25] = system: Mast/stem cell growth factor receptor Kit (Homo sapiens), P10721 [D816V]; settings: Compound concentration 1000.0 nM
[26] = target: Cyclin-dependent kinase 18 (Homo sapiens) (UniProt Q07002); settings: Compound concentration 1000.0 nM
[27] = target: Phosphatidylinositol 4,5-bisphosphate 3-kinase catalytic subunit beta isoform (Homo sapiens) (UniProt P42338); settings: Compound concentration 1000.0 nM
[28] = target: Hormonally up-regulated neu tumor-associated kinase (Homo sapiens) (UniProt P57058); settings: Compound concentration 1000.0 nM
[29] = target: Serine/threonine-protein kinase WNK3 (Homo sapiens) (UniProt Q9BYP7); settings: Compound concentration 1000.0 nM
[30] = target: Mitogen-activated protein kinase kinase kinase 14 (Homo sapiens) (UniProt Q99558); settings: Compound concentration 1000.0 nM
[31] = target: Serine/threonine-protein kinase DCLK1 (Homo sapiens) (UniProt O15075); settings: Compound concentration 1000.0 nM
[32] = target: Ephrin type-B receptor 1 (Homo sapiens) (UniProt P54762); settings: Compound concentration 1000.0 nM
[33] = target: 5'-AMP-activated protein kinase catalytic subunit alpha-1 (Homo sapiens) (UniProt Q13131); settings: Compound concentration 1000.0 nM
[34] = target: Cyclin-dependent kinase-like 2 (Homo sapiens) (UniProt Q92772); settings: Compound concentration 1000.0 nM
[35] = target: Cyclin-dependent kinase 4 (Homo sapiens) (UniProt P11802); settings: Compound concentration 1000.0 nM
[36] = system: Receptor-type tyrosine-protein kinase FLT3 (Homo sapiens), P36888 [UNDEFINED MUTATION]; settings: Compound concentration 1000.0 nM
[37] = target: Tyrosine-protein kinase CSK (Homo sapiens) (UniProt P41240); settings: Compound concentration 1000.0 nM
[38] = target: Cyclin-dependent kinase 2 homolog (Plasmodium falciparum (isolate 3D7)) (UniProt P61075); settings: Compound concentration 1000.0 nM
[39] = target: Serine/threonine-protein kinase SIK3 (Homo sapiens) (UniProt Q9Y2K2); settings: Compound concentration 1000.0 nM
[40] = target: Serine/threonine-protein kinase 16 (Homo sapiens) (UniProt O75716); settings: Compound concentration 1000.0 nM
[41] = system: Tyrosine-protein kinase ABL1 (Homo sapiens), P00519 [H396P]; settings: Compound concentration 1000.0 nM
[42] = target: Tyrosine-protein kinase Mer (Homo sapiens) (UniProt Q12866); settings: Compound concentration 1000.0 nM
[43] = target: Delta-type opioid receptor (Homo sapiens) (UniProt P41143); settings: Compound concentration 10.0 uM
[44] = target: Phosphatidylinositol 4,5-bisphosphate 3-kinase catalytic subunit alpha isoform (Homo sapiens) (UniProt P42336); settings: Compound concentration 1000.0 nM
[45] = target: MAP kinase-activated protein kinase 5 (Homo sapiens) (UniProt Q8IW41); settings: Compound concentration 1000.0 nM
MAP kinase-activated protein kinase 5 (Homo sapiens), sequence (Q8IW41 whole entry): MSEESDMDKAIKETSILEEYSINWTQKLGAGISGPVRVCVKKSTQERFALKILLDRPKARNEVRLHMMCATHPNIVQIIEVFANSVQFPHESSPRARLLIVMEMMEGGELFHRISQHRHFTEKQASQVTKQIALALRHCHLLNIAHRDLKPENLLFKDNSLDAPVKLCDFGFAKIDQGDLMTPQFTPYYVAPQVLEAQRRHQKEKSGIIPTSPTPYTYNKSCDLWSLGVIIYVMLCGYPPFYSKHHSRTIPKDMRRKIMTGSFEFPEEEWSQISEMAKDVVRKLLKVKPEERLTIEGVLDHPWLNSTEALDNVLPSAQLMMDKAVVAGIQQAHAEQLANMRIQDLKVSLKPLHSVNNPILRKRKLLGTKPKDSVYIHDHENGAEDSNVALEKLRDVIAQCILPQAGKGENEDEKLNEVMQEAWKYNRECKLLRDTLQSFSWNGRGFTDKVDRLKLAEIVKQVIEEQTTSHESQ

Cyclin-dependent kinase-like 2 (Homo sapiens), sequence (Q92772 whole entry): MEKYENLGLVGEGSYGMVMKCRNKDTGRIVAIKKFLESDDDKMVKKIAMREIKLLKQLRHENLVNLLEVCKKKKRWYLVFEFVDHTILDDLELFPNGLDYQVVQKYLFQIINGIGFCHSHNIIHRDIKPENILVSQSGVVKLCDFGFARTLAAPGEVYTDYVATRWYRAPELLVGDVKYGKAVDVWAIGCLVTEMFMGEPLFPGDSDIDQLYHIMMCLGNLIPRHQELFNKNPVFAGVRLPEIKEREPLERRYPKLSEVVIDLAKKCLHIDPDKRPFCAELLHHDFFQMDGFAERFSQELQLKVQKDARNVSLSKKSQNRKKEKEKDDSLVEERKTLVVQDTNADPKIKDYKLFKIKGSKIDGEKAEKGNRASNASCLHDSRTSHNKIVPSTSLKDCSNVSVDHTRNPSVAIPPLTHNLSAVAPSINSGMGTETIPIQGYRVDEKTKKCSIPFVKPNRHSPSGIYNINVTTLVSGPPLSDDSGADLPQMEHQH
Casein kinase I isoform gamma-2 (Homo sapiens), sequence (P78368 whole entry, looked up, canonical isoform): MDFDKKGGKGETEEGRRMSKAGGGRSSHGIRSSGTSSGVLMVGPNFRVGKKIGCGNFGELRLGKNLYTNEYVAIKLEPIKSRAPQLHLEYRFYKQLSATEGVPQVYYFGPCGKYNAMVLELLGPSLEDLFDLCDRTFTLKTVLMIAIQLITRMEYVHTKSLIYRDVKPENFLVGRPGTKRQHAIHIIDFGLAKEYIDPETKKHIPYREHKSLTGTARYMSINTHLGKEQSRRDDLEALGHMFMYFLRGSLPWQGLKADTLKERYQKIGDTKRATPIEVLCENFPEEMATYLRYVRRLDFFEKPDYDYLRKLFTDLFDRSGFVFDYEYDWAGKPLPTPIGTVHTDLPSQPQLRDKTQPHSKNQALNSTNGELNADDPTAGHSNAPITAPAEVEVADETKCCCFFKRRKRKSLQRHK
Cyclin-dependent kinase 4 (Homo sapiens), sequence (P11802 whole entry): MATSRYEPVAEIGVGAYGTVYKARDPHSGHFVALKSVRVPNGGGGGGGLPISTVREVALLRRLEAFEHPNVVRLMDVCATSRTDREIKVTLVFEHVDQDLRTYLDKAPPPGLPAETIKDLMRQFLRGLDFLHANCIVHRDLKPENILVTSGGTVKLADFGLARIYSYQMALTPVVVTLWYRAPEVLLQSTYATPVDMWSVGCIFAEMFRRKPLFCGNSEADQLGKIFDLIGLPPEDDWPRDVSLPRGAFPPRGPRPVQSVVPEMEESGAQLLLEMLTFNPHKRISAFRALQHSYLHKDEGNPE
Myosin-IIIb (Homo sapiens), sequence (Q8WXR4 whole entry): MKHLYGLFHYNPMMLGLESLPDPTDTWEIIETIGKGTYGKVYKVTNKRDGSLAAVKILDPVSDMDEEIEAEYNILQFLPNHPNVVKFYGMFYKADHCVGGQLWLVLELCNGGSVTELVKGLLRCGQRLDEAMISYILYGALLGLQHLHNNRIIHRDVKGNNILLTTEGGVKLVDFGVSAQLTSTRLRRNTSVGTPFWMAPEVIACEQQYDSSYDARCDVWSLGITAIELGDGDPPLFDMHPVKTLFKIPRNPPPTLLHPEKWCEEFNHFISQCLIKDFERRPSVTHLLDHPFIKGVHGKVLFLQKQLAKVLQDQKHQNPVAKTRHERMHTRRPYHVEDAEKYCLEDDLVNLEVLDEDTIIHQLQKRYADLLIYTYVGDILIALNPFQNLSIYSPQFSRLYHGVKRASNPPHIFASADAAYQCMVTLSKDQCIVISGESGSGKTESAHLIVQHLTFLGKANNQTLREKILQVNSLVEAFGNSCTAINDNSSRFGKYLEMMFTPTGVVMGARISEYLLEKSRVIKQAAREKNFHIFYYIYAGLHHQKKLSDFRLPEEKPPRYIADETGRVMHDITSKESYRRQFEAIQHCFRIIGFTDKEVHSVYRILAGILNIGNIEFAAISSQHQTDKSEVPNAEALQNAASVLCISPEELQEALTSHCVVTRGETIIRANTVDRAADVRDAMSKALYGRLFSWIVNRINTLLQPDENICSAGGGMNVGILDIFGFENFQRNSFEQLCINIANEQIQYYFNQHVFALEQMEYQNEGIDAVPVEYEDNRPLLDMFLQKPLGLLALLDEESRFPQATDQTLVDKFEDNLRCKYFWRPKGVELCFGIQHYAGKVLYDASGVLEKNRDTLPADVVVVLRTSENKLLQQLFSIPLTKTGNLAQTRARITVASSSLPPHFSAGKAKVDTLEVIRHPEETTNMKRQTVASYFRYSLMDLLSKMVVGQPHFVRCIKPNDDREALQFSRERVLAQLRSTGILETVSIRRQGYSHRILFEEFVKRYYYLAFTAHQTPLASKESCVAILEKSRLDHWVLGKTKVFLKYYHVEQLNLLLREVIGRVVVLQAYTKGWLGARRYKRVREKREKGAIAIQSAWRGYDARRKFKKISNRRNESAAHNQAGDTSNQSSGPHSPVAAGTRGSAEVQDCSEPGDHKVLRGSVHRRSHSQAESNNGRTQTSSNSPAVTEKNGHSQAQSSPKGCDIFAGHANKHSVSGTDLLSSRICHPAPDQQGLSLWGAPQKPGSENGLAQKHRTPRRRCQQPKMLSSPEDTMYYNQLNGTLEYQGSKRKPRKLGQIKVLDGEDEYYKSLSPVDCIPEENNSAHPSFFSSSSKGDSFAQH
Dual specificity mitogen-activated protein kinase kinase 1 (Homo sapiens), sequence (Q02750 whole entry): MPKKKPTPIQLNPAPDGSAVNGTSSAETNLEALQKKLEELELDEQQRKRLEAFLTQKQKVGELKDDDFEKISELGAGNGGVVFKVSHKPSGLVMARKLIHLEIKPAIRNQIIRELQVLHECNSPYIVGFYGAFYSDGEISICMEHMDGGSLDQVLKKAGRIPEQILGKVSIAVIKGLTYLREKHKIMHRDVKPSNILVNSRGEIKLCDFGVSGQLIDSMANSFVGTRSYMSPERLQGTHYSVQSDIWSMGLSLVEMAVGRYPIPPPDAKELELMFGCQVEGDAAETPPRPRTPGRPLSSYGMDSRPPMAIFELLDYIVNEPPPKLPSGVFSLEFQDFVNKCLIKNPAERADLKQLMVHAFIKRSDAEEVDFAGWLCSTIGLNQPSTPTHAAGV
Myosin light chain kinase family member 4 (Homo sapiens), sequence (Q86YV6 whole entry): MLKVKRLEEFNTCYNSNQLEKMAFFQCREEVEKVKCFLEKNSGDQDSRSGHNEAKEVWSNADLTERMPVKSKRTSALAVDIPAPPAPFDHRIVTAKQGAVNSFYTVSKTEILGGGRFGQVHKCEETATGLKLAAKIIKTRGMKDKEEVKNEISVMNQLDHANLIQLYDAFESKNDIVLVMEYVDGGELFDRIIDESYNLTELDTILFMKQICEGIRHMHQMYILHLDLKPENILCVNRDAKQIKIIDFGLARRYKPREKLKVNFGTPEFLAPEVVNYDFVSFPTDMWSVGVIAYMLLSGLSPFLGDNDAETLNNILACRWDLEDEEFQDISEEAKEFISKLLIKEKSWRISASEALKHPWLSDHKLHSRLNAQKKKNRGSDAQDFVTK
Phosphatidylinositol 4,5-bisphosphate 3-kinase catalytic subunit beta isoform (Homo sapiens), sequence (P42338 whole entry, looked up, canonical isoform): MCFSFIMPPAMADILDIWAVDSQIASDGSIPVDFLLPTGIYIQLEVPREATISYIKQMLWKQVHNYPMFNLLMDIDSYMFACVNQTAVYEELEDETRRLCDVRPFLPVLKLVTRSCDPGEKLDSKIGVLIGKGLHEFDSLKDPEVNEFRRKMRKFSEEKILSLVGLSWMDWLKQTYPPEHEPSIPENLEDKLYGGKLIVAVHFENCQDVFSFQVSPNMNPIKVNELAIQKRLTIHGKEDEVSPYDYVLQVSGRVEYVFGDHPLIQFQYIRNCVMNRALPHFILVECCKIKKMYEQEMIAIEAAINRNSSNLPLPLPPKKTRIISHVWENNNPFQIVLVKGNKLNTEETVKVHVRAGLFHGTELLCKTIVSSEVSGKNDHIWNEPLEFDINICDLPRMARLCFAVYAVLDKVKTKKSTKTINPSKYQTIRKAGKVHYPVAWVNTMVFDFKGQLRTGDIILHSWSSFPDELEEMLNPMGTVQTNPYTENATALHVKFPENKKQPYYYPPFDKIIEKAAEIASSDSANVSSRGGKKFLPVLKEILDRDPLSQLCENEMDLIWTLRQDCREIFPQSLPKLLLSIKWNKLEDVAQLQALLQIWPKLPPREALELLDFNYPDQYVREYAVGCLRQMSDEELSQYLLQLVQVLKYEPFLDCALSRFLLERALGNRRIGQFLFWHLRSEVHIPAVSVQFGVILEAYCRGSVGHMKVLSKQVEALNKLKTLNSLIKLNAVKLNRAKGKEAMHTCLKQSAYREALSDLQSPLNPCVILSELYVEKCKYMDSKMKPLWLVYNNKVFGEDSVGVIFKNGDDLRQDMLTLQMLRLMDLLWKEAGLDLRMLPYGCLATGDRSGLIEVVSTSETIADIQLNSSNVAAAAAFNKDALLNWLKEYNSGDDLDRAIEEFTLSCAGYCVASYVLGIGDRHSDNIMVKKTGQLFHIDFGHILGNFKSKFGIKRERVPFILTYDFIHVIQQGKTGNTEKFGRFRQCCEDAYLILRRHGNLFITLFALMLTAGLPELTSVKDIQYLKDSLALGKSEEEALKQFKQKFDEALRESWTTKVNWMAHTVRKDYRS

O=C(O)[C@@H]1[C@@H](Cn2nnc3ccccc3c2=O)CC[C@H]1C(=O)c1ccc(OCCC2CCOCC2)cc1 [BAY-694]
inactive: residual activity [1] 100% | inhibition [2] 36.2% | residual activity [3] 100% | residual activity [4] 100% | residual activity [5] 92% | residual activity [6] 93% | residual activity [7] 74% | residual activity [8] 90% | residual activity [9] 58% | residual activity [10] 100% | residual activity [11] 96% | residual activity [12] 81% | inhibition [13] 8.62% | residual activity [14] 100% | residual activity [15] 89% | residual activity [16] 100% | residual activity [17] 100% | residual activity [18] 100% | residual activity [19] 100% | residual activity [20] 94% | residual activity [21] 94% | residual activity [22] 100% | residual activity [23] 88% | residual activity [24] 100% | residual activity [25] 98% | residual activity [26] 90% | residual activity [27] 66% | residual activity [28] 100% | residual activity [29] 100% | residual activity [30] 100% | residual activity [31] 100% | residual activity [32] 100% | residual activity [33] 100% | residual activity [34] 73% | residual activity [35] 96% | residual activity [36] 100% | residual activity [37] 90% | residual activity [38] 100% | residual activity [39] 84% | residual activity [40] 89% | residual activity [41] 97% | residual activity [42] 100% | inhibition [43] 15.9% | residual activity [44] 100% | residual activity [45] 76%

O=C(O)[C@H]1[C@H](Cn2nnc3ccccc3c2=O)CC[C@@H]1C(=O)c1ccc(OCCC2CCOCC2)cc1 [BAY-7598]
inactive: residual activity [1] 87% | inhibition [2] 22.8% | residual activity [3] 94% | residual activity [4] 100% | residual activity [5] 81% | residual activity [6] 78% | residual activity [7] 100% | residual activity [8] 69% | residual activity [9] 53% | residual activity [10] 90% | residual activity [11] 100% | residual activity [12] 100% | inhibition [13] 3.34% | residual activity [14] 100% | residual activity [15] 89% | residual activity [16] 98% | residual activity [17] 88% | residual activity [18] 100% | residual activity [19] 93% | residual activity [20] 100% | residual activity [21] 77% | residual activity [22] 66% | residual activity [23] 69% | residual activity [24] 93% | residual activity [25] 97% | residual activity [26] 84% | residual activity [27] 80% | residual activity [28] 71% | residual activity [29] 100% | residual activity [30] 85% | residual activity [31] 73% | residual activity [32] 100% | residual activity [33] 100% | residual activity [34] 97% | residual activity [35] 89% | residual activity [36] 93% | residual activity [37] 100% | residual activity [38] 91% | residual activity [39] 61% | residual activity [40] 85% | residual activity [41] 94% | residual activity [42] 61% | inhibition [43] 1.43% | residual activity [44] 100% | residual activity [45] 99%
